From patent US8791102B2, “Acetanilide sphingosine-1-phosphate receptor antagonists” (Exelixis, Inc., priority 2008, dated 2014) come the findings set out here.

For orientation: IC50 means the concentration that inhibits the measured activity by half.

A value given as a limit tells only on which side of the number the result lay.

The target of the experiment is T1, human S1P1 receptors (Homo sapiens, UniProt P21453).
T1 construct: host or cells: HEK293
T1 sequence (P21453 whole entry): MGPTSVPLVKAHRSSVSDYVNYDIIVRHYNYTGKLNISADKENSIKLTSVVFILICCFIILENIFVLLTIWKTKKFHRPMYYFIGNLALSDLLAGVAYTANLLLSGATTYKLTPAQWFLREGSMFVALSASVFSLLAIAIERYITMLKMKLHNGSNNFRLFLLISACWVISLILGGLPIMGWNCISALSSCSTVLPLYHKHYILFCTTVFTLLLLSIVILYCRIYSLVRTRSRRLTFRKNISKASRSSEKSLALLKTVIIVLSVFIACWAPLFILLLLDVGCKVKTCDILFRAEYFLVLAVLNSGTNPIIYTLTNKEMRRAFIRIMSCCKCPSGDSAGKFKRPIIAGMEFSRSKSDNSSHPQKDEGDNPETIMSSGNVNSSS
Nature of the experiment: S1P1R antagonist assay (fluorescent membrane potential dye, cAMP readout). The format is cell-based. The conditions noted are these: HEK293 cells expressing human S1P1 receptors and CNG channel; 500 nM NECA; S1P1R agonist 10 nM; 90 minutes; read-out: EC50 or IC50 value.
Take `O=C(CN1CCc2ccccc2C1)N[C@@H](COCc1ccccc1)C(=O)Nc1ccc(Oc2ccc(F)cc2)cc1` [Compound 221, (S)-3-(benzyloxy)-2-(2-(3,4-dihydroisoquinolin-2(1H)-yl)acetamido)-N-(4-(4-fluorophenoxy)phenyl)propanamide]: the IC50 is 300 to 1000 nM.

As to `O=C(NC(COCc1ccccc1)C(=O)Nc1ccc(Oc2ccccc2)cc1)c1ccc(C(F)(F)F)cc1C(F)(F)F` (centres unmarked) [Compound 362, N-(2-oxo-1-{[(phenylmethyl)oxy]methyl}-2-{[4-(phenyloxy)phenyl]amino}ethyl)-2,4-bis(trifluoromethyl)benzamide], the IC50 is 300 to 1000 nM.

On to `O=C(Nc1ccc(Oc2ccc(F)cc2)cc1)[C@@H]1C[C@@H](Cc2ccccc2)CN1C(=O)Cc1cccs1` [Compound 117, (2S,4R)-4-benzyl-N-(4-(4-fluorophenoxy)phenyl)-1-(2-(thien-2-yl)acetyl)pyrrolidine-2-carboxamide], for which the IC50 is no more than 300 nM.

With `O=C(NC(COCc1ccccc1)C(=O)Nc1ccc(Oc2ccccc2)cc1)c1cn[nH]c1` (centres unmarked) [Compound 355, N-(2-oxo-1-{[(phenylmethyl)oxy]methyl}-2-{[4-(phenyloxy)phenyl]amino}ethyl)-1H-pyrazole-4-carboxamide], the IC50 is 300 to 1000 nM.

In the case of `O=C(Nc1ccc(Oc2ccc(F)cc2)cc1)[C@@H]1C[C@@H](Cc2ccc(Cl)cc2Cl)CN1C(=O)Cn1cncn1` [Compound 180, (2S,4R)-1-(2-(1H-1,2,4-triazol-1-yl)acetyl)-4-(2,4-dichlorobenzyl)-N-(4-(4-fluorophenoxy)phenyl)pyrrolidine-2-carboxamide], the IC50 was no more than 300 nM.

As for `C[C@@H](C(=O)NC(COCc1ccccc1)C(=O)Nc1ccc(Oc2ccccc2)cc1)c1ccccc1` (stereo partly drawn) [Compound 354, N-(2-oxo-1-{[(phenylmethyl)oxy]methyl}-2-{[4-(phenyloxy)phenyl]amino}ethyl)-2R-phenylpropanamide], the IC50 lay in the range of 300 to 1000 nM.

`O=C(Cc1c[nH]cn1)N[C@@H](COCc1ccccc1)C(=O)Nc1ccc(OCc2ccccc2)cc1` [Compound 211, (S)-2-(2-(1H-imidazol-4-yl)acetamido)-3-(benzyloxy)-N-(4-(benzyloxy)phenyl)propanamide]: the IC50 is no more than 300 nM.

For `O=C(NC(COCc1ccccc1)C(=O)Nc1ccc(Oc2ccccc2)cc1)c1cccnc1Cl` (centres unmarked) [Compound 296, 2-chloro-N-(2-oxo-1-{[(phenylmethyl)oxy]methyl}-2-{[4-(phenyloxy)phenyl]amino}ethyl)pyridine-3-carboxamide], the IC50 was greater than 1000 nM.

On to `COc1cccc2cc(C(=O)NC(COCc3ccccc3)C(=O)Nc3ccc(Oc4ccccc4)cc3)oc12` (centres unmarked) [Compound 367, 7-(methyloxy)-N-(2-oxo-1-{[(phenylmethyl)oxy]methyl}-2-{[4-(phenyloxy)phenyl]amino}ethyl)-1-benzofuran-2-carboxamide], for which the IC50 was greater than 1000 nM.

`CCCCC(CC)C(=O)NC(COCc1ccccc1)C(=O)Nc1ccc(Oc2ccccc2)cc1` (centres unmarked) [Compound 282, N-(3-(benzyloxy)-1-oxo-1-(4-phenoxyphenylamino)propan-2-yl)-2-ethylhexanamide]: the IC50 was greater than 1000 nM.

Turning to `O=C(Cc1cnc[nH]1)N[C@@H](Cc1ccccc1)C(=O)Nc1ccc(Oc2ccc(Cl)cc2)cc1` [Compound 204, (S)-2-(2-(1H-imidazol-5-yl)acetamido)-N-(4-(4-chlorophenoxy)phenyl)-3-phenylpropanamide], the IC50 lay in the range of 300 to 1000 nM.

As to `O=C(Cc1cccc2ccccc12)NC(COCc1ccccc1)C(=O)Nc1ccc(Oc2ccccc2)cc1` (centres unmarked) [Compound 375, N-(2-oxo-1-{[(phenylmethyl)oxy]methyl}-2-{[4-(phenyloxy)phenyl]amino}ethyl)-2-(naphthalen-1-yl)acetamide], the IC50 was greater than 1000 nM.

For the compound `COCC(=O)NC(COCc1ccccc1)C(=O)Nc1ccc(Oc2ccccc2)cc1` (centres unmarked) [Compound 284, N-(2-oxo-1-{[(phenylmethyl)oxy]methyl}-2-{[4-(phenyloxy)phenyl]amino}ethyl)-2-methoxyacetamide], the IC50 is greater than 1000 nM.

Take `CN(C)C(=O)CCC(=O)NC(COCc1ccccc1)C(=O)Nc1ccc(Oc2ccccc2)cc1` (centres unmarked) [Compound 339, N,N-dimethyl-N′-(2-oxo-1-{[(phenylmethyl)oxy]methyl}-2-{[4-(phenyloxy)phenyl]amino}ethyl)butanediamide]: the IC50 was greater than 1000 nM.

As for `COC(C(=O)NC(COCc1ccccc1)C(=O)Nc1ccc(Oc2ccccc2)cc1)c1ccccc1` (centres unmarked) [Compound 353, N-(2-oxo-1-{[(phenylmethyl)oxy]methyl}-2-{[4-(phenyloxy)phenyl]amino}ethyl)-2-methoxy-2-phenylacetamide], the IC50 is greater than 1000 nM.

Turning to `O=C(COc1ccc(Cl)c(Cl)c1)NC(COCc1ccccc1)C(=O)Nc1ccc(Oc2ccccc2)cc1` (centres unmarked) [Compound 370, N-(2-oxo-1-{[(phenylmethyl)oxy]methyl}-2-{[4-(phenyloxy)phenyl]amino}ethyl)-2-(3,4-dichlorophenoxy)acetamide], the IC50 is 300 to 1000 nM.

In the case of `CCN1CCN(CC(=O)N[C@@H](COCc2ccccc2)C(=O)Nc2ccc(Oc3ccc(F)cc3)cc2)CC1` [Compound 114, (S)-3-(benzyloxy)-2-(2-(4-ethylpiperazin-1-yl)acetamido)-N-(4-(4-fluorophenoxy)phenyl)propanamide], the half-inhibitory concentration (IC50) was greater than 1000 nM.

With `CCOCCC(=O)N1C[C@H](Cc2ccccc2)C[C@H]1C(=O)Nc1ccc(Oc2ccc(F)cc2)cc1` [Compound 86, (2S,4R)-4-benzyl-1-(3-ethoxypropanoyl)-N-(4-(4-fluorophenoxy)phenyl)pyrrolidine-2-carboxamide], the 50% inhibitory concentration (IC50) is no more than 300 nM.

Turning to `CCCOc1ccc(C(=O)NC(COCc2ccccc2)C(=O)Nc2ccc(Oc3ccccc3)cc2)cc1` (centres unmarked) [Compound 345, N-(2-oxo-1-{[(phenylmethyl)oxy]methyl}-2-{[4-(phenyloxy)phenyl]amino}ethyl)-4-(propyloxy)benzamide], the IC50 is greater than 1000 nM.

For the compound `Cc1cccc(C[C@@H]2C[C@@H](C(=O)Nc3ccc(Oc4ccc(F)cc4)cc3)N(C(=O)Cn3cncn3)C2)c1` [Compound 171, (2S,4R)-1-(2-(1H-1,2,4-triazol-1-yl)acetyl)-N-(4-(4-fluorophenoxy)phenyl)-4-(3-methylbenzyl)pyrrolidine-2-carboxamide], the IC50 is no more than 300 nM.

On to `CC(=O)N[C@@H](COCc1ccccc1)c1nc2cc(Oc3ccc(F)cc3)ccc2[nH]1` [Compound 60, (R)—N-(2-(benzyloxy)-1-(5-(4-fluorophenoxy)-1H-benzo[d]imidazol-2-yl)ethyl)acetamide], for which the IC50 is greater than 1000 nM.

On to `O=C(Cc1cc(Cl)ccc1Cl)NC(COCc1ccccc1)C(=O)Nc1ccc(Oc2ccccc2)cc1` (centres unmarked) [Compound 190, 3-(benzyloxy)-2-(2-(2,5-dichlorophenyl)acetamido)-N-(4-phenoxyphenyl)propanamide], for which the IC50 was in the range of 300 to 1000 nM.

For the compound `CC(=O)N1CCC[C@H]1C(=O)N1C[C@H](Cc2ccccc2)C[C@H]1C(=O)Nc1ccc(Oc2ccc(F)cc2)cc1` [Compound 93, (2S,4R)-1-((S)-1-acetylpyrrolidine-2-carbonyl)-4-benzyl-N-(4-(4-fluorophenoxy)phenyl)pyrrolidine-2-carboxamide], the IC50 is no more than 300 nM.

For `O=C(NC(COCc1ccccc1)C(=O)Nc1ccc(Oc2ccccc2)cc1)c1cccc2[nH]ccc12` (centres unmarked) [Compound 184, N-(3-(benzyloxy)-1-oxo-1-(4-phenoxyphenylamino)propan-2-yl)-1H-indole-4-carboxamide], the IC50 was in the range of 300 to 1000 nM.

As to `O=C(Nc1ccc(Oc2ccc(F)cc2)cc1)[C@@H]1C[C@@H](Oc2ccccc2)CN1C(=O)Cn1cncn1` [Compound 259, (2S,4R)-1-(2-(1H-1,2,4-triazol-1-yl)acetyl)-N-(4-(4-fluorophenoxy)phenyl)-4-phenoxypyrrolidine-2-carboxamide], the IC50 lay in the range of 300 to 1000 nM.

For `Nc1nc(C(F)(F)F)nn1CC(=O)N1C[C@H](Cc2ccccc2)C[C@H]1C(=O)Nc1ccc(Oc2ccc(F)cc2)cc1` [Compound 11, (2S,4R)-1-(2-(5-amino-3-(trifluoromethyl)-1H-1,2,4-triazol-1-yl)acetyl)-4-benzyl-N-(4-(4-fluorophenoxy)phenyl)pyrrolidine-2-carboxamide], the IC50 was no more than 300 nM.

Take `CC(=O)CCC(=O)NC(COCc1ccccc1)C(=O)Nc1ccc(Oc2ccccc2)cc1` (centres unmarked) [Compound 347, 4-oxo-N-(2-oxo-1-{[(phenylmethyl)oxy]methyl}-2-{[4-(phenyloxy)phenyl]amino}ethyl)pentanamide]: the IC50 is greater than 1000 nM.

`CC(C)=CCC[C@H](C)CC(=O)N[C@@H](COCc1ccccc1)C(=O)Nc1ccc(Oc2ccc(F)cc2)cc1` [Compound 248, (S)—N—((S)-3-(benzyloxy)-1-(4-(4-fluorophenoxy)phenylamino)-1-oxopropan-2-yl)-3,7-dimethyloct-6-enamide]: the half-inhibitory concentration (IC50) fell in the range of 300 to 1000 nM.

For `O=C(Nc1ccc(Oc2ccc(F)cc2)cc1)[C@@H]1C[C@@H](Cc2ccc(F)c(F)c2)CN1C(=O)Cn1ccnn1` [Compound 226, (2S,4R)-1-(2-(1H-1,2,3-triazol-1-yl)acetyl)-4-(3,4-difluorobenzyl)-N-(4-(4-fluorophenoxy)phenyl)pyrrolidine-2-carboxamide], the IC50 is no more than 300 nM.

Turning to `CC(=O)NC(COCc1ccccc1)C(=O)Nc1ccc(Oc2ccccc2)cc1` (centres unmarked) [Compound 269, N-(2-oxo-1-{[(phenylmethyl)oxy]methyl}-2-{[4-(phenyloxy)phenyl]amino}ethyl)acetamide], the IC50 was in the range of 300 to 1000 nM.

Take `Cc1cc(Oc2ccc(F)cc2)ccc1NC(=O)[C@H](COCc1ccccc1)NC(=O)Cc1cnc[nH]1` [Compound 47, (S)-2-(2-(1H-imidazol-5-yl)acetamido)-3-(benzyloxy)-N-(4-(4-fluorophenoxy)-2-methylphenyl)propanamide]: the IC50 was greater than 1000 nM.

`CC(=O)c1ccc(C(=O)NC(COCc2ccccc2)C(=O)Nc2ccc(Oc3ccccc3)cc2)cc1` (centres unmarked) [Compound 396, 4-acetyl-N-(2-oxo-1-{[(phenylmethyl)oxy]methyl}-2-{[4-(phenyloxy)phenyl]amino}ethyl)benzamide]: the IC50 was greater than 1000 nM.
